Source: ChEMBL document CHEMBL5046310, “Design, Synthesis and Biological Evaluation of Prodrugs of 666-15 as Inhibitors of CREB-Mediated Gene Transcription” (ACS Med Chem Lett, 2022)

Columns and labels:
[1] = Tmax in C57BL/6 mouse at 10 mg/kg, ip measured up to 24 hrs by LC-MS/MS analysis; format: ADME, organism-based; settings: in vivo
[2] = Tmax in C57BL/6 mouse at 20 mg/kg, po measured up to 24 hrs by LC-MS/MS analysis; format: ADME, organism-based; settings: in vivo
[3] = Stability of the compound in DMEM media with 10% fetal bovine serum assessed as hydrolysis of prodrug at 25 uM measured for 5 mins by RP-HPLC analysis; format: ADME, cell-free; settings: cattle
[4] = Apparent permeability of the compound across apical to basolateral side in human Caco-2 cells; format: ADME, cell-based

Structure (SMILES) | Tmax [1] [h] | Tmax [2] [h] | t1/2 [3] [h] | Papp A→B [4] [×10⁻⁶ cm/s]
NCCCOc1cc2ccccc2cc1C(=O)NCCOc1cc2ccccc2cc1C(=O)Nc1ccc(Cl)cc1OP(=O)(O)O.O=C(O)C(F)(F)F | 1 | 2 | – | –
NCCCOc1cc2ccccc2cc1C(=O)NCCOc1cc2ccccc2cc1C(=O)Nc1ccc(Cl)cc1OCOP(=O)(O)O.O=C(O)C(F)(F)F | – | – | 2.61 | –
Cl.NCCCOc1cc2ccccc2cc1C(=O)NCCOc1cc2ccccc2cc1C(=O)Nc1ccc(Cl)cc1O | 0.25 | 2 | – | < 0.11
